For this assay, the target named is T1, PAR-2 (Homo sapiens, UniProt P55085).
T1 construct: human embryonic kidney 293 cells (HEK293) endogenously expressing PAR-2; endogenous in cells; host or cells: HEK293
T1 sequence (P55085 26-397): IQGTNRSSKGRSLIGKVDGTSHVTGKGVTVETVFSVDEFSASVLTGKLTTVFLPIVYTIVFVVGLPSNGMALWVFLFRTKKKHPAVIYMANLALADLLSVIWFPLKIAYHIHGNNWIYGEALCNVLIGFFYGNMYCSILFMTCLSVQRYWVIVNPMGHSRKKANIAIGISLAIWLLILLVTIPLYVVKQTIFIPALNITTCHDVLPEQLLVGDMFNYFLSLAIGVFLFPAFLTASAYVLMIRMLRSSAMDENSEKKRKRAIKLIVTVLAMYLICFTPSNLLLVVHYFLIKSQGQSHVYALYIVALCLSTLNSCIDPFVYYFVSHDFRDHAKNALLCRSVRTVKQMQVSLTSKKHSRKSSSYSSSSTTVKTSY
In words: In vitro PAR-2 assay (trypsin-evoked calcium signal, Fluo-4). Type of assay: cell-based. Conditions: for IC50: HEK293 cells endogenously expressing PAR-2, in the presence of 4 nM trypsin, calcium imaging. How it is done: Assay Principle: A cellular in vitro assay was developed with human embryonic kidney 293 cells (HEK293) endogenously expressing PAR-2. The PAR-2 activating protease trypsin (EC50: ˜1 nM) was used as an agonistic stimulus with subsequent Fluo-4 dependent intracellular calcium detection (calcium imaging).
A cell-based calcium assay was applied for the identification of PAR-2 antagonistic effects of polyethylene glycol esters and polyethylene glycol ethers. Functional modulation of PAR-2 by the tested compounds was measured and quantified using the calcium sensitive fluorescent probe Fluo-4 AM on a fluorescence microplate reader. Activation of PAR-2 by an agonist (trypsin) led to an increase in the intracellular calcium concentration and thus an increase in fluorescence intensity.
Human embryonic kidney 293 cells (HEK293) endogenously expressing PAR-2 were cultured in DMEM (high glucose) supplemented with tetracycline-free FCS (10% v/v), L-glutamine (4 mM), blasticidin (15 μg/ml), zeocin (100 μg/ml) and puromycin (2 μg/ml) in a water-saturated atmosphere at 37° C. and 5% CO2.
Cells were seeded onto 96-well clear-bottom black-walled assay plates at a density of 45.000 cells per well in 100 μl of cell culture medium. Intracellular calcium increase in the living cells due to receptor activation was monitored 24 h later using the calcium sensitive fluorescent probe Fluo-4 AM on a fluorescence microplate reader (FlexStation® system, Molecular Devices). […]
Medium was replaced with 150 μl KH buffer supplemented with sulfinpyrazone (250 μM). Subsequently, 50 μl KH buffer supplemented with the screening compounds or control substances were added and the cells were incubated for 10 min. under assay conditions in the microplate reader. Changes in fluorescence were recorded at 37° C. after addition of 50 μl KH buffer supplemented with the PAR-2 agonist trypsin (final concentration of 4 nM under measurement conditions).
Calcium mobilization was quantified as the change of peak fluorescence (ΔF) over the baseline level (F). The data was analysed with the software of the microplate reader. […]

For PEG-5 Isononanoate, the IC50 was 100 µM.

As to trypsin [reference compound], the concentration for a half-maximal effect (EC50) (HEK293 cells, Fluo-4 calcium detection, read-out: EC50 of PAR-2 activating protease (agonistic stimulus)) is around 0.001 µM.

In the case of PEG-9 Tridecylether, the IC50 came to 65 µM.
